Data on 38 molecules can be found in patent US12552772B2, “2-pyrazole anilines and related analogs for inhibiting YAP/TAZ-TEAD” (KATHOLIEKE UNIVERSITEIT LEUVEN, priority 2021, dated 2026).

pEC50: −log10 of the molar value. Some results are limits rather than exact numbers.

In the test the test system is YAP/TAZ-TEAD transcription. The test can be described thus: Reporter gene assay for measuring the inhibition of YAP/TAZ-TEAD transcription (TEAD-responsive element luciferase reporter in Hek293T cells). The class given is cell-based. The note with it: Homo sapiens, HEK-293T, 24 hours incubation. On the procedure:
Hek293T cells are cultured in DMEM supplemented with 10% fetal bovine serum, Sodium pyruvate, Sodium bicarbonate, L-glutamine. The cells are harvested and transiently transfected with TEAD-responsive element luciferase reporter. Transfected cells are plated in 384-wells plate containing pre-diluted compounds. After 24 hours incubation at 37° C./5% CO2, assay plates were cooled down to RT and levelled to an equal volume per well, prior to the addition of 25 uL luciferase substrate SteadyLite (Perkin Elmer)/well. The plate was shaken for 10 min at 600 rpm, centrifuged for 1 min at 500 rpm and measured with an Envision reader (PerkinElmer). The amount of relative light units produced by the TEAD reporter is used to calculated percent of inhibition.
The percent of reporter inhibition was calculated in the presence of a positive control inhibitor (100% inhibition) versus a condition with the presence of the vehicle basal activity of the reporter (0% inhibition). The ability of a test compound to inhibit this activity was determined as: Percentage inhibition=[1−((RLU determined in the presence of vehicle−RLU determined for sample with test compound present) divided by (RLU determined in the presence of vehicle−RLU determined for sample with positive control inhibitor))]*100
The activities of the example compounds tested are depicted in the table below. The activity ranges A, B and C refer to EC50 values in the reporter gene assay as described as follows: “A”: EC50<1 μM; “B”: 1 μM s EC50≤20 μM and “C”: EC50>20 μM, NT=not tested.
In turn, `c1ccc(-c2cccc(-c3ccn(CCc4cccnc4)n3)c2)cc1` [compound 023] showed a pEC50 of 4.70 to 6.00. As to `Cn1ccc(Cn2ccc(-c3cccc(-c4ccccc4)c3)n2)cc1=O` [compound 024, 4-((3-([1,1′-biphenyl]-3-yl)-1H-pyrazol-1-yl)methyl)-1-methylpyridin-2(1H)-one], the pEC50 was 4.70 to 6.00. Take `c1ccc(-c2cccc(-c3ccn(CCN4CCOCC4)n3)c2)cc1` [compound 025, 4-(2-(3-([1,1′-biphenyl]-3-yl)-1H-pyrazol-1-yl)ethyl)morpholine]: the pEC50 is 4.70 to 6.00. Then `c1ccc(-c2cccc(-c3ccn(CC4CCOCC4)n3)c2)cc1` [compound 026, 3-([1,1′-biphenyl]-3-yl)-1-((tetrahydro-2H-pyran-4-yl)methyl)-1H-pyrazole], with < 4.70; and `N#Cc1ccc(Cn2ccc(-c3cccc(-c4ccccc4)c3)n2)cn1` [compound 027, 5-((3-([1,1′-biphenyl]-3-yl)-1H-pyrazol-1-yl)methyl)picolinonitrile], with 4.70 to 6.00; and `NC(=O)c1ccc(Cn2ccc(-c3cccc(-c4ccccc4)c3)n2)cn1` [compound 028, 5-((3-([1,1′-biphenyl]-3-yl)-1H-pyrazol-1-yl)methyl)picolinamide], with 4.70 to 6.00.

The molecule `NCc1ccc(Cn2ccc(-c3cccc(-c4ccccc4)c3)n2)cn1` [compound 029, (5-((3-([1,1′-biphenyl]-3-yl)-1H-pyrazol-1-yl)methyl)pyridin-2-yl)methanamine] gave a negative logarithm of the EC50 (pEC50) of 4.70 to 6.00. The same measure for `c1ccc(-c2cccc(-c3ccn(CC4CCNCC4)n3)c2)cc1` [compound 030, 4-((3-([1,1′-biphenyl]-3-yl)-1H-pyrazol-1-yl)methyl)piperidine]: 4.70 to 6.00. Molecule `CC(=O)N1CCC(Cn2ccc(-c3cccc(-c4ccccc4)c3)n2)CC1` [compound 031, 1-(4-((3-([1,1′-biphenyl]-3-yl)-1H-pyrazol-1-yl)methyl)piperidin-1-yl)ethan-1-one] showed a pEC50 of 4.70 to 6.00. The same measure for `CN1CCC(Cn2ccc(-c3cccc(-c4ccccc4)c3)n2)CC1` [compound 032, 4-((3-([1,1′-biphenyl]-3-yl)-1H-pyrazol-1-yl)methyl)-1-methylpiperidine]: 4.70 to 6.00; for `C=Cc1ccc(Cn2ccc(-c3cccc(-c4ccccc4)c3)n2)cn1` [compound 033, 5-((3-([1,1′-biphenyl]-3-yl)-1H-pyrazol-1-yl)methyl)-2-vinylpyridine]: 4.70 to 6.00; for `Nc1ccc(Cn2ccc(-c3cccc(-c4ccccc4)c3)n2)cn1` [compound 034, 5-((3-([1,1′-biphenyl]-3-yl)-1H-pyrazol-1-yl)methyl)pyridin-2-amine]: < 4.70. `C=Cc1cc(Cn2ccc(-c3cccc(-c4ccccc4)c3)n2)ccn1` [compound 035, 4-((3-([1,1′-biphenyl]-3-yl)-1H-pyrazol-1-yl)methyl)-2-vinylpyridine] had a pEC50 of 4.70 to 6.00. In turn, `CNc1cc(Cn2ccc(-c3cccc(-c4ccccc4)c3)n2)ccn1` [compound 036, 4-((3-([1,1′-biphenyl]-3-yl)-1H-pyrazol-1-yl)methyl)-N-methylpyridin-2-amine] showed a pEC50 of 4.70 to 6.00.

Molecule `C=CC(=O)Nc1ccc(Cn2ccc(-c3cccc(-c4ccccc4)c3)n2)cn1` [compound 037, N-(5-((3-([1,1′-biphenyl]-3-yl)-1H-pyrazol-1-yl)methyl)pyridin-2-yl)acrylamide] showed a pEC50 of 4.70 to 6.00. For `O=C1CCN1c1ccc(Cn2ccc(-c3cccc(-c4ccccc4)c3)n2)cn1` [compound 038, 1-(5-((3-([1,1′-biphenyl]-3-yl)-1H-pyrazol-1-yl)methyl)pyridin-2-yl)azetidin-2-one], the negative logarithm of the EC50 (pEC50) was < 4.70.

With `CCC(=O)Nc1ccc(Cn2ccc(-c3cccc(-c4ccccc4)c3)n2)cn1` [compound 039, N-(5-((3-([1,1′-biphenyl]-3-yl)-1H-pyrazol-1-yl)methyl)pyridin-2-yl)propionamide], the pEC50 was 4.70 to 6.00. Then `O=C(O)c1cncc(Cn2ccc(-c3cccc(-c4ccccc4)c3)n2)c1` [compound 040, 5-((3-([1,1′-biphenyl]-3-yl)-1H-pyrazol-1-yl)methyl)nicotinic acid], with < 4.70.

Molecule `NC(=O)c1cncc(Cn2ccc(-c3cccc(-c4ccccc4)c3)n2)c1` [compound 041, 5-((3-([1,1′-biphenyl]-3-yl)-1H-pyrazol-1-yl)methyl)nicotinamide] showed a negative logarithm of the EC50 (pEC50) of 4.70 to 6.00. For `O=C(O)c1ccncc1Cn1ccc(-c2cccc(-c3ccccc3)c2)n1` [compound 042, 3-((3-([1,1′-biphenyl]-3-yl)-1H-pyrazol-1-yl)methyl)isonicotinic acid], the pEC50 is < 4.70. The same measure for `NC(=O)c1ccncc1Cn1ccc(-c2cccc(-c3ccccc3)c2)n1` [compound 043, 3-((3-([1,1′-biphenyl]-3-yl)-1H-pyrazol-1-yl)methyl)isonicotinamide]: 4.70 to 6.00; for `c1ccc(Nc2cccc(-c3ccn(Cc4ccccn4)n3)c2)cc1` [compound 044, N-phenyl-3-(1-(pyridin-2-ylmethyl)-1H-pyrazol-3-yl) aniline]: 4.70 to 6.00; for `c1ccc(Nc2cccc(-c3ccn(Cc4cccnc4)n3)c2)cc1` [compound 045, N-phenyl-3-(1-(pyridin-3-ylmethyl)-1H-pyrazol-3-yl)aniline]: 4.70 to 6.00. The same measure for `c1ccc(Nc2cccc(-c3ccn(CCc4cccnc4)n3)c2)cc1` [compound 046, N-phenyl-3-(1-(2-(pyridin-3-yl)ethyl)-1H-pyrazol-3-yl)aniline]: 4.70 to 6.00; for `c1ccc(-c2cccc(-c3nnn(Cc4cccnc4)n3)c2)cc1` [compound 047, 3-((5-([1,1′-biphenyl]-3-yl)-2H-tetrazol-2-yl)methyl)pyridine]: 4.70 to 6.00. Molecule `O=C(Cc1cccnc1)Nc1cccc(-c2ccccc2)c1` [compound 048, N—([1,1′-biphenyl]-3-yl)-2-(pyridin-3-yl)acetamide] showed a pEC50 of 4.70 to 6.00. With `O=S(=O)(F)CCNc1ccc(-c2ccccc2)cc1-c1ccn(Cc2cccnc2)n1` [compound 049, 2-((3-(1-(pyridin-3-ylmethyl)-1H-pyrazol-3-yl)-[1,1′-biphenyl]-4-yl)amino)ethane-1-sulfonyl fluoride], the negative logarithm of the EC50 (pEC50) is 4.70 to 6.00. Then `CNS(=O)(=O)CCNc1ccc(-c2ccccc2)cc1-c1ccn(Cc2cccnc2)n1` [compound 050, N-methyl-2-((3-(1-(pyridin-3-ylmethyl)-1H-pyrazol-3-yl)-[1,1′-biphenyl]-4-yl)amino)ethane-1-sulfonamide], with > 6.00; and `O=S1(=O)CCN(c2ccc(-c3ccccc3)cc2-c2ccn(Cc3cccnc3)n2)CC1` [compound 051, 4-(3-(1-(pyridin-3-ylmethyl)-1H-pyrazol-3-yl)-[1,1′-biphenyl]-4-yl)thiomorpholine 1,1-dioxide], with < 4.70. Then `CN(C)S(=O)(=O)CCNc1ccc(-c2ccccc2)cc1-c1ccn(Cc2cccnc2)n1` [compound 053, N,N-dimethyl-2-((3-(1-(pyridin-3-ylmethyl)-1H-pyrazol-3-yl)-[1,1′-biphenyl]-4-yl)amino)ethane-1-sulfonamide], with > 6.00; and `O=S1(=O)CCN(c2cc(-c3ccccc3)cc(-c3ccn(Cc4cccnc4)n3)c2)CC1` [compound 055, 4-(5-(1-(pyridin-3-ylmethyl)-1H-pyrazol-3-yl)-[1,1′-biphenyl]-3-yl)thiomorpholine 1,1-dioxide], with 4.70 to 6.00. The same measure for `CNS(=O)(=O)CCNc1ccc(-c2ccccc2)cc1-c1ccn(C)n1` [compound 056, N-methyl-2-((3-(1-methyl-1H-pyrazol-3-yl)-[1,1′-biphenyl]-4-yl)amino)ethane-1-sulfonamide]: > 6.00; for `Cn1ccc(-c2cc(-c3ccccc3)ccc2NCCS(=O)(=O)O)n1` [compound 057, 2-((3-(1-methyl-1H-pyrazol-3-yl)-[1,1′-biphenyl]-4-yl)amino)ethane-1-sulfonic acid]: < 4.70; for `Cn1ccc(-c2cc(-c3ccccc3)ccc2NCCS(N)(=O)=O)n1` [compound 058, 2-((3-(1-methyl-1H-pyrazol-3-yl)-[1,1′-biphenyl]-4-yl)amino)ethane-1-sulfonamide]: > 6.00. For the molecule `O=C(O)CCNc1ccc(-c2ccccc2)cc1-c1ccn(Cc2cccnc2)n1` [compound 059, 3-((3-(1-(pyridin-3-ylmethyl)-1H-pyrazol-3-yl)-[1,1′-biphenyl]-4-yl)amino)propanoic acid], the pEC50 was > 6.00. Take `CNC(=O)CCNc1ccc(-c2ccccc2)cc1-c1ccn(Cc2cccnc2)n1` [compound 060, N-methyl-3-((3-(1-(pyridin-3-ylmethyl)-1H-pyrazol-3-yl)-[1,1′-biphenyl]-4-yl)amino)propanamide]: the pEC50 was > 6.00. Then `O=C(O)CCNc1cc(-c2ccccc2)cc(-c2ccn(Cc3cccnc3)n2)c1` [compound 061, 3-((5-(1-(pyridin-3-ylmethyl)-1H-pyrazol-3-yl)-[1,1′-biphenyl]-3-yl)amino)propanoic acid], with < 4.70; and `CNC(=O)CCNc1cc(-c2ccccc2)cc(-c2ccn(Cc3cccnc3)n2)c1` [compound 062, N-methyl-3-((5-(1-(pyridin-3-ylmethyl)-1H-pyrazol-3-yl)-[1,1′-biphenyl]-3-yl)amino)propanamide], with 4.70 to 6.00.

The pEC50 is the negative decadic logarithm of the EC50, by convention in mol/L. A higher pEC50 goes with a low EC50.
